Reference: US20260256921A1, “BIFUNCTIONAL MOLECULES TO TARGET DEGRADATION OF TUMOR NECROSIS FACTOR” (Biohaven Therapeutics Ltd., priority 2023, published 2026)

These compounds were tested against T1, Recombinant human ASGPR protein (Homo sapiens, UniProt P07306) (assay: GalNAc-PAA human ASGPR1 competition binding assay). Conditions: competition with GalNAc-PAA-biotin 500 ng/ml.
T1 construct: purchased R&D Systems 4394-AS
T1 sequence (P07306 1-291): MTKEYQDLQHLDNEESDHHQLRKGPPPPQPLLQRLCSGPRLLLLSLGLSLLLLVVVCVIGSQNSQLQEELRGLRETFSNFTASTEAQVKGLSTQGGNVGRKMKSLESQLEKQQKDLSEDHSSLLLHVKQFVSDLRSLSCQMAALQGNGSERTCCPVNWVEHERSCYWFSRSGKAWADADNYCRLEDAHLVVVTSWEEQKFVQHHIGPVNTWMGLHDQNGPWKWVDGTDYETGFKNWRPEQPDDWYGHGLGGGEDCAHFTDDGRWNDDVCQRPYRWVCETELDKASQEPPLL
Experimental: Protocol. Recombinant human ASGPR protein (R&D Systems Catalog #4394-AS; Minneapolis, MN, USA) was reconstituted to 200 μg/ml in Assay Buffer (20 mM HEPES (TEKnova Catalog #H1030; Hollister, CA, USA), 150 mM NaCl (Promega Catalog #V4221; Madison, WI, USA), 1 mM CaCl2 (Alfa Aesar Catalog #J63122; Tewksbury, MA, USA)). Nunc-Immuno™ MicroWell™ 96 well solid plates (Sigma Catalog #M9410; Burlington, MA, USA) were coated with 300 ng of ASGPR protein per well by diluting the protein to 3 μg/ml in Assay Buffer and adding 100 μl to each well. A few wells were left without ASGPR protein for controls in which 100 μl of Assay Buffer were added. The plate was incubated overnight at 4° C. After overnight incubation, coating solution was discarded and the wells were blocked with 150 μl/well of Blocking Buffer (1% Bovine Serum Albumin (BSA) in Assay Buffer; Sigma Catalog #A3059-100G; Burlington, MA, USA) for 2 hours at 4° C. Frozen stock of GalNAc-PAA-biotin (GlycoNZ Catalog #GNZ-0031-BP, 1 mg/ml in Assay Buffer; Auckland, NZ) was thawed and diluted 1:1000 in Assay Buffer to create a 1000 ng/ml 2× working solution. Competitor compounds were reconstituted to 100 mM in DMSO. If compounds were insoluble at this concentration, they were further diluted in DMSO. Compounds were diluted 1 to 12.5 (10 μl DMSO stock diluted to 125 μl) in Assay Buffer, then 5 fold serially diluted. The DMSO concentration in the 2× working solution of the first well is 8%, for a final starting DMSO concentration of 4%. In a separate deep-well plate (NEST Catalog #503501; Woodbridge, NJ, USA), equal amounts of 1000 ng/ml GalNAc-PAA and serially diluted compounds were combined, for a final concentration of 500 ng/ml GalNAc-PAA and 4 mM compound (top concentration), assuming that the compound concentration of the DMSO stock solution was 100 mM. Plates with Blocking Buffer were removed from refrigerator and blocking solution was discarded. The wells were washed with 200 μl of Assay Buffer three times. After the last wash, plates were tapped dry on paper towels to remove excess liquid.
Next, 100 μl of GalNAc-PAA-biotin premixed with serially diluted compounds was added into each well. For control, several wells containing 500 ng/ml GalNAc-PAA-biotin were included. Plates were incubated for 2 hours at room temperature on an orbital shaker at 100 rpm. After incubation, compound solutions were discarded and each well was washed with 200 μl Assay Buffer three times. Streptavidin-HRP (R&D Systems catalogue #DY998; Minneapolis, MN, USA) was diluted 1:200 in Assay Buffer. 100 μl of the diluted Streptavidin-HRP was added to each well and incubated at room temperature for 45 minutes, protected from light. Streptavidin-HRP was then discarded and each well was washed with 200 μl of Assay Buffer three times. 3,3′,5,5′-Tetramethylbenzidine (TMB) Substrate color reagents A and B (R&D Systems catalog #DY999; Minneapolis, MN, USA) were mixed at a ratio of 1:1 and 100 μl was added to each well. After a 5 minute incubation, 50 μl of Stop Solution (R&D Systems catalog #DY994; Minneapolis, MN, USA) was added to each well. Plates were shaken for 10 seconds using the orbital shaker in the plate reader and read at 450 nm. […] Normalized data were analyzed using a nonlinear-fit of normalized data with a four-parameter sigmoidal dose-response variable slope model.

How did the Ki turn out when `CCC(=O)N[C@H]1CO[C@H](COCCOCCOCCOCCn2cc(COCCNC(=O)CNC(=O)CCOCCOCCC(=O)N3CCN(Cc4ccc(-c5c[nH]c6ccncc56)c(OCCc5ccc(-c6cccc7ccncc67)cc5)c4)CC3)nn2)[C@H](O)[C@@H]1O` [Compound 107] was run?
The Ki was 0.8 µM.

For `CCC(=O)NC1COC(COCCOCCOCCOCCn2cc(COCC(COCc3cn(CCOCCOCCOCCOCC4OCC(NC(=O)CC)C(O)C4O)nn3)(COCc3cn(CCOCCOCCOCCOCC4OCC(NC(=O)CC)C(O)C4O)nn3)NC(=O)CNC(=O)CCOCCOCCC(=O)N3CCN(Cc4ccc(-c5c[nH]c6ccncc56)c(OCCc5ccc(-c6cccc7ccncc67)cc5)c4)CC3)nn2)C(O)C1O` (centres unmarked) [Compound 103], which Ki is on record?
The Ki was 0.2 µM.

How did the Ki turn out when `CCC(=O)NC1COC(COCCOCCOCCOCCn2cc(COCCNC(=O)CNC(=O)CCOCCOCCOCCOCCOCCOCCC(=O)N3CCN(Cc4ccc(-c5c[nH]c6ccncc56)c(OCCc5ccc(-c6cccc7ccncc67)cc5)c4)CC3)nn2)C(O)C1O` (centres unmarked) [Compound 105] was run?
The Ki was 0.6 µM.

For `CCC(=O)NC1COC(COCCOCCOCCOCCn2cc(COCC(COCc3cn(CCOCCOCCOCCOCC4OCC(NC(=O)CC)C(O)C4O)nn3)(COCc3cn(CCOCCOCCOCCOCC4OCC(NC(=O)CC)C(O)C4O)nn3)NC(=O)CNC(=O)CCC(=O)N3CCN(Cc4ccc(-c5c[nH]c6ccncc56)c(OCCc5ccc(-c6cccc7ccncc67)cc5)c4)CC3)nn2)C(O)C1O` (centres unmarked) [Compound 104], which Ki is on record?
Its Ki is 0.2 µM.

For `CCC(=O)N[C@H]1CO[C@H](COCCOCCOCCOCCn2cc(COCCNC(=O)CNC(=O)CCC(=O)N3CCN(Cc4ccc(-c5c[nH]c6ccncc56)c(OCCc5ccc(-c6cccc7ccncc67)cc5)c4)CC3)nn2)[C@H](O)[C@@H]1O` [Compound 106], which Ki is on record?
Its Ki is 1.1 µM.
